One data set concerns Saos-2 osteoblasts. To be noted: for cell viability: 3 days of incubation, % of that of the control, FIG. 4A.
Data set [1] has as its system primary bovine chondrocytes. Particulars: for cytotoxic effect: 7 days.
Description: The ability of the conjugate to release alendronate in a controlled way and also to have an effect on cartilage tissue was evaluated by in vitro testing on primary bovine chondrocytes.
(§1) 1) a control group, wherein the cells were neither treated nor stimulated;
(§2) Each sample was tested in four replications.
A short description of data set [2]: Rheological properties: viscoelastic moduli (frequency sweep) after adding CaCl2. In kind it is physicochemical. Particulars: 20 mg/mL in 0.1 M TRIS pH 7, alendronate 2.4 mg/mL, CaCl2 2 mg/mL, 20° C, 0.1-100 rad/s; FIG. 2.

Where two headings read alike, the source gives them in different places.

The term cell viability denotes a read-out of living cells in per cent, often relative to untreated cells. A low value points to a greater loss of cells.

Description for Saos-2 osteoblasts: The cells were then seeded at the concentration of 1×10^4 cells/well in 96-well Multiwell plates (Sarstedt, cat. no. 83,3924, Germany) and divided into three groups:
as §1, §2

For `NCCCC(O)(P(=O)(O)O)P(=O)(O)O` [alendronate], the cell viability is given as under 70% in the data set on Saos-2 osteoblasts (Saos-2, 50 μM) and under 70% with Saos-2 osteoblasts (Saos-2, 100 μM). Further, in the data set with Saos-2 osteoblasts (Saos-2, 3 versus 7 days), the “cytotoxicity as a function of incubation period” value is given as “increases significantly in proportion to the incubation period”. In addition, in data set [1], the “onset of the effect on the cells” value was “acts on the primary bovine chondrocytes after only 72 hours of incubation”. In addition, the cytotoxic effect result in data set [1] (50 μM) and in data set [1] (100 μM) was “maximum cytotoxic effect” in each case. Also, the “viscoelastic moduli G′ (elastic) and G″ (viscous), comparison in words” value in data set [2] is recorded as “no effect on rheological behaviour”.
